The record followed here is PubChem BioAssay (NCI).

Some test systems named below: SR leukemia; A549 NSCLC; KM12 colon; A498 renal; SW-620 colon; SF-268 CNS; UACC-257 melanoma; HOP-62 NSCLC.
Common to all, as to test: inhibition of tumour cell growth, NCI panel, 48 h

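Each compound was tested at five concentrations against cells in 96-well plates for 48 hours. Here, GI50 denotes the concentration required for 50% inhibition of growth. At the TGI there is no net growth.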

`COC(c1cccc(C(O)(C(F)(F)F)C(F)(F)F)c1)(C(F)(F)F)C(F)(F)F`: the TGI came out at 51.4 µM with SR leukemia; 31.2 µM in the test with A549 NSCLC; 33.9 µM in the test with KM12 colon; 34.4 µM in the test with A498 renal; 32.9 µM in the test with SW-620 colon; 38.5 µM with SF-268 CNS. Moreover, the values for the TGI with UACC-257 melanoma and in the test on HOP-62 NSCLC were 42.3 µM and 33.7 µM, respectively.
Regarding `O=C(C=Nc1ccccc1C(=O)[O-])c1cccs1.O=C(C=Nc1ccccc1C(=O)[O-])c1cccs1.[Co+2]`, the TGI in the test with SR leukemia, in the test on A549 NSCLC, with KM12 colon, with A498 renal, with SW-620 colon and in the test with SF-268 CNS was more than 100 µM in each case. The TGI in the test on UACC-257 melanoma and in the test on HOP-62 NSCLC was more than 100 µM each time.
For `O=C(O)C1=CCCc2ccc3ccccc3c21`, the TGI in the test on A549 NSCLC, in the test on KM12 colon, in the test on A498 renal, in the test on SW-620 colon, in the test with SF-268 CNS and in the test with UACC-257 melanoma was more than 100 µM each time.
With `CCN(CC)CCCn1cnc2ncccc2c1=O`, the TGI with SR leukemia, with A549 NSCLC, with KM12 colon, in the test on SW-620 colon, in the test with SF-268 CNS and with HOP-62 NSCLC was more than 100 µM each time.
With `CC(=O)Oc1cc(C)c2c(c1OC(C)=O)CC1(O2)[C@@H](C)CCC2[C@@]3(C)CC[C@H](OC(C)=O)C(C)(C)C3CC[C@]21C` (stereo partly specified), the TGI in the test on SR leukemia is 11.3 µM; in the test with A549 NSCLC it was 33.2 µM; in the test with KM12 colon, 18.2 µM; in the test on A498 renal, 21.4 µM; in the test with SW-620 colon, 12.3 µM; with SF-268 CNS, 12.8 µM. Further, the TGI was determined as 21.8 µM in the test with UACC-257 melanoma and 8.3 µM in the test with HOP-62 NSCLC.
Consider `C/C(=N\NC(N)=S)c1cc(C)c(C)cc1C`, for which the TGI is more than 100 µM in the test with SR leukemia; more than 100 µM in the test with A549 NSCLC; 71.2 µM in the test on KM12 colon; more than 100 µM in the test on A498 renal; more than 100 µM in the test on SW-620 colon; more than 100 µM in the test on SF-268 CNS. Also, the TGI in the test on UACC-257 melanoma and in the test on HOP-62 NSCLC was more than 100 µM throughout.
As for `O=C(CCC(=O)Nc1cccc(Cl)c1)CC(=O)c1ccc(F)cc1`, the TGI in the test on SR leukemia, in the test on A549 NSCLC, with KM12 colon, in the test with SW-620 colon, with SF-268 CNS and in the test on UACC-257 melanoma was more than 100 µM in each case. In addition, the TGI in the test with HOP-62 NSCLC is more than 100 µM.
`[Cl][Sn]([Cl])([c]1ccccc1)[c]1ccccc1`: the GI50 was 3.93 µM in the test on SR leukemia; 19.8 µM with A549 NSCLC; 19.6 µM with KM12 colon; 3.02 µM with SW-620 colon; 13.2 µM with SF-268 CNS; 13.6 µM in the test with UACC-257 melanoma. Besides, the TGI in the test on SR leukemia amounted to 25.7 µM; with A549 NSCLC, 39.2 µM; in the test with KM12 colon it was 39.1 µM; in the test with SW-620 colon it was 10.2 µM; in the test with SF-268 CNS it was 30.4 µM; with UACC-257 melanoma, 27 µM.
As to `CSc1cccc(-n2c3nc(=O)n(C)c(=O)c-3nc3ccccc32)c1`, the TGI in the test with A549 NSCLC amounted to 16.2 µM; with KM12 colon, 43.2 µM; with A498 renal, 25.3 µM; with SW-620 colon, 22 µM; in the test with SF-268 CNS, 61.9 µM; with HOP-62 NSCLC it was 45.3 µM.
On to `CCCCCCCC(=O)NCC(O)CNC(=O)CCCCCCC`, for which the TGI with SR leukemia, with A549 NSCLC, with KM12 colon, in the test on A498 renal, in the test with SW-620 colon and with SF-268 CNS was more than 100 µM each time. The TGI in the test on UACC-257 melanoma and in the test on HOP-62 NSCLC was more than 100 µM each time.
`CCOC(=O)c1c(-c2ccccc2)oc(-c2ccccc2)c1C(=O)OCC`: the TGI with SR leukemia, with A549 NSCLC, with KM12 colon, in the test on A498 renal, in the test with SW-620 colon and with SF-268 CNS was more than 100 µM in each case. Moreover, the TGI in the test on UACC-257 melanoma and with HOP-62 NSCLC was more than 100 µM throughout.
With `Cc1oc2c(C)c3oc(=O)cc(C)c3cc2c1CNC(=O)[C@@H]1OCCOCCOCCOCCOCCOC1C(=O)O` (stereo partly specified), the TGI with SR leukemia, in the test on A549 NSCLC, in the test with KM12 colon, in the test on A498 renal, with SW-620 colon and in the test with SF-268 CNS was more than 100 µM throughout. In addition, the TGI with UACC-257 melanoma and in the test with HOP-62 NSCLC was more than 100 µM throughout.
Consider `CC1(Cl)CC2OC3(Br)C=CC(C)(O)C2(CC1Br)C3(C)C` (stereo unspecified), for which the TGI in the test with SR leukemia, with A549 NSCLC, in the test on KM12 colon, in the test with A498 renal, with SW-620 colon and with SF-268 CNS was more than 100 µM throughout. Also, the TGI in the test with UACC-257 melanoma and with HOP-62 NSCLC was more than 100 µM each time.
